“And” between values parts separate entries of the source, which are not always exact repeats. Identical values can stand only once.
Tested on: 922993-354-T-J3-PDC complex spheroids, viability, % test/control
Experiment: Anticancer human tumor 922993-354-T-J3-PDC patient-derived endometrial carcinoma cell line growth inhibition [CLK]
Details: for viability, T/C: stronger effect = lower value
Procedure, shortened: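 Multi-cell-type spheroids combined patient-derived tumor cells with HUVEC endothelial cells and human mesenchymal stem cells. Paired agents were dosed in half-log steps down from about clinical Cmax, or from 10 microM where Cmax was unknown.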

[1] = curve of first compound, second compound 0.0316 µM
[2] = curve of first compound, second compound 0.1 µM
[3] = curve of first compound, second compound 0.316 µM
[4] = curve of first compound, second compound 1 µM
[5] = curve of first compound, second compound 3.16 µM
[6] = curve of first compound, second compound 10 µM
[7] = second compound 0.0316 µM, first compound 0.0316 µM
[8] = second compound 0.0316 µM, first compound 0.1 µM
[9] = second compound 0.0316 µM, first compound 0.316 µM
[10] = second compound 0.0316 µM, first compound 1 µM
[11] = second compound 0.0316 µM, first compound 3.16 µM
[12] = second compound 0.0316 µM, first compound 10 µM
[13] = second compound 0.1 µM, first compound 0.0316 µM
[14] = second compound 0.1 µM, first compound 0.1 µM
[15] = second compound 0.1 µM, first compound 0.316 µM
[16] = second compound 0.1 µM, first compound 1 µM
[17] = second compound 0.1 µM, first compound 3.16 µM
[18] = second compound 0.1 µM, first compound 10 µM
[19] = second compound 0.316 µM, first compound 0.0316 µM
[20] = second compound 0.316 µM, first compound 0.1 µM
[21] = second compound 0.316 µM, first compound 0.316 µM
[22] = second compound 0.316 µM, first compound 1 µM
[23] = second compound 0.316 µM, first compound 3.16 µM
[24] = second compound 0.316 µM, first compound 10 µM
[25] = second compound 1 µM, first compound 0.0316 µM
[26] = second compound 1 µM, first compound 0.1 µM
[27] = second compound 1 µM, first compound 0.316 µM
[28] = second compound 1 µM, first compound 1 µM
[29] = second compound 1 µM, first compound 3.16 µM
[30] = second compound 1 µM, first compound 10 µM
[31] = second compound 3.16 µM, first compound 0.0316 µM
[32] = second compound 3.16 µM, first compound 0.1 µM
[33] = second compound 3.16 µM, first compound 0.316 µM
[34] = second compound 3.16 µM, first compound 1 µM
[35] = second compound 3.16 µM, first compound 3.16 µM
[36] = second compound 3.16 µM, first compound 10 µM
[37] = second compound 10 µM, first compound 0.0316 µM
[38] = second compound 10 µM, first compound 0.1 µM
[39] = second compound 10 µM, first compound 0.316 µM
[40] = second compound 10 µM, first compound 1 µM
[41] = second compound 10 µM, first compound 3.16 µM
[42] = second compound 10 µM, first compound 10 µM
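Further: spheroids exposed to the agents for 7 days before readout.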

SMILES: CC1COCCN1c1cc(C2(S(C)(=N)=O)CC2)nc(-c2ccnc3[nH]ccc23)n1 (stereo not drawn)
- viability, T/C (compound 0.0316 µM): 101% and 91.8%
- viability, T/C (compound 0.1 µM): 118% and 86.8%
- viability, T/C (compound 0.316 µM): 130% and 91.7%
- viability, T/C (compound 1 µM): 90.4% and 102%
- viability, T/C (compound 3.16 µM): 108% and 94.2%
- viability, T/C (compound 10 µM): 68.6% and 78.2%
- IC50 (curve of compound): > 10000 nM

SMILES: COc1cccc2c1C(=O)c1c(O)c3c(c(O)c1C2=O)CC(O)(C(=O)CO)CC3OC1CC(N)C(O)C(C)O1 (stereo not drawn) + CN1CCN(c2cc(C(=O)Nc3cc4cc(-c5cnn(C)c5)ccc4cn3)ccn2)CC1
- IC50 [1]: 2210 nM
- IC50 [2]: 1840 nM
- IC50 [3]: < 31.6 nM
- IC50 [4]: < 31.6 nM
- IC50 [5]: < 31.6 nM
- IC50 [6]: < 31.6 nM
- viability, T/C [7]: 108%
- viability, T/C [8]: 119%
- viability, T/C [9]: 93.7%
- viability, T/C [10]: 66.1%
- viability, T/C [11]: 45.2%
- viability, T/C [12]: 15.5%
- viability, T/C [13]: 123%
- viability, T/C [14]: 109%
- viability, T/C [15]: 83.3%
- viability, T/C [16]: 65%
- viability, T/C [17]: 37.8%
- viability, T/C [18]: 17.4%
- viability, T/C [19]: 31%
- viability, T/C [20]: 38%
- viability, T/C [21]: 32.9%
- viability, T/C [22]: 26.4%
- viability, T/C [23]: 13.3%
- viability, T/C [24]: 11.1%
- viability, T/C [25]: 0.14%
- viability, T/C [26]: 1.85%
- viability, T/C [27]: 0.14%
- viability, T/C [28]: 0.11%
- viability, T/C [29]: 0.09%
- viability, T/C [30]: 1.32%
- viability, T/C [31]: 0.12%
- viability, T/C [32]: 0.2%
- viability, T/C [33]: 0.67%
- viability, T/C [34]: 0.09%
- viability, T/C [35]: 1.78%
- viability, T/C [36]: 1.28%
- viability, T/C [37]: 0.16%
- viability, T/C [38]: 0.15%
- viability, T/C [39]: 0.16%
- viability, T/C [40]: 0.15%
- viability, T/C [41]: 1.57%
- viability, T/C [42]: 1.56%

SMILES: CN1CCN(c2cc(C(=O)Nc3cc4cc(-c5cnn(C)c5)ccc4cn3)ccn2)CC1
- viability, T/C (compound 0.1 µM): 97.6% [middle of 12 runs]
- viability, T/C (compound 1 µM): 1.97% [middle of 12 runs]
- viability, T/C (compound 3.16 µM): 0.81% [middle of 12 runs]
- viability, T/C (compound 10 µM): 0.24% [middle of 12 runs]
- IC50 (compound alone, run of 09/18/2023): 266 nM [middle of 12 runs]

SMILES: NC(=O)C(=Cn1cnc(-c2cc(C(F)(F)F)cc(C(F)(F)F)c2)n1)c1cncnc1
- viability, T/C (compound 0.00949 µM): 99% and 121%
- viability, T/C (compound 0.03 µM): 107% and 106%
- viability, T/C (compound 0.0949 µM): 64.8% and 96.1%
- viability, T/C (compound 0.3 µM): 47.6% and 68.7%
- viability, T/C (compound 0.949 µM): 46.4% and 56.8%
- viability, T/C (compound 3 µM): 24.8% and 32.5%
- IC50 (curve of compound): 187 nM and 1170 nM

SMILES: Nc1ccccc1NC(=O)c1ccc(CNC(=O)OCc2cccnc2)cc1 + CN1CCN(c2cc(C(=O)Nc3cc4cc(-c5cnn(C)c5)ccc4cn3)ccn2)CC1
- IC50 [1]: > 10000 nM
- IC50 [2]: 4690 nM
- IC50 [3]: < 31.6 nM
- IC50 [4]: < 31.6 nM
- IC50 [5]: < 31.6 nM
- IC50 [6]: < 31.6 nM
- viability, T/C [7]: 111%
- viability, T/C [8]: 114%
- viability, T/C [9]: 103%
- viability, T/C [10]: 90.3%
- viability, T/C [11]: 62%
- viability, T/C [12]: 51.9%
- viability, T/C [13]: 103%
- viability, T/C [14]: 97.2%
- viability, T/C [15]: 83.8%
- viability, T/C [16]: 60.1%
- viability, T/C [17]: 59.6%
- viability, T/C [18]: 41.7%
- viability, T/C [19]: 39.8%
- viability, T/C [20]: 29.3%
- viability, T/C [21]: 31.7%
- viability, T/C [22]: 33%
- viability, T/C [23]: 6.16%
- viability, T/C [24]: 1.51%
- viability, T/C [25]: 0.15%
- viability, T/C [26]: 1.32%
- viability, T/C [27]: 0.79%
- viability, T/C [28]: 0.09%
- viability, T/C [29]: 0.26%
- viability, T/C [30]: 1.83%
- viability, T/C [31]: 0.61%
- viability, T/C [32]: 0.12%
- viability, T/C [33]: 1.29%
- viability, T/C [34]: 0.65%
- viability, T/C [35]: 1.19%
- viability, T/C [36]: 1.23%
- viability, T/C [37]: 0.11%
- viability, T/C [38]: 0.14%
- viability, T/C [39]: 2.33%
- viability, T/C [40]: 0.14%
- viability, T/C [41]: 2.41%
- viability, T/C [42]: 2.96%
